Usually ED50 stands for the dose that gives a 50% effect, or the effect in half of the subjects.

Common to all, as to format: in vivo, rat
Assay [1] relates to diabetic rats. Kind of assay: Hargreaves plantar test, withdrawal latency to noxious thermal stimulation of the foot. The following applies: 1 mg/kg/day in food for 2 weeks. The procedure: (§1) Diabetes was induced in mature (19 week old) male Sprague-Dawley by streptozotocin injection (40-45 mg/kg i.p.). The diabetic state was monitored weekly using commercially available test strips for blood (tail vein) and urine glucose levels. Body weight would also be monitored daily. The criteria for the diabetic state are; blood glucose>19.9 mM, glycosuria, and no evidence of body weight gain (which would indicate partial recovery of beta cell function). At the end of the experiments, blood samples would be taken for the determination of plasma glucose.
Experiments were designed with a reversal (intervention) paradigm: diabetic rats were untreated for 6 weeks to allow the development of neurovascular dysfunction. They were then treated over the next 2 weeks with a dose of 1 mg/kg/day of a representative compound of the invention, 13-HODE, given as a dietary supplement dispersed in the food with a sunflower oil vehicle (50 ml/2.5 kg food). […]
Before final experiments, nociceptive latencies for withdrawal reflexes to noxious thermal stimulation of the foot were estimated by the Hargreaves plantar test using commercially available equipment (Ugo-Basile, Comerio, Italy). […] After 30 min acclimatization, a constant power infrared stimulus was focused through the glass base onto the sole of the foot and the latency for reflex foot withdrawal automatically recorded via a photoelectric monitor. […]

Assay [2] relates to diabetic rats. Kind of assay: Motor nerve conduction velocity (NCV) in sciatic nerve of streptozotocin-diabetic rats. The following applies: for motor NCV: 2-week daily oral treatment after 6 weeks untreated diabetes, diabetic around 50 m/s, non-diabetic around 60 m/s; for ED50: Rattus norvegicus, calculated from dose response curves of FIG. 13; for times more potent than GLA in restoring motor nerve conduction velocity: from ED50 values. How it is done:
(§2) Male Sprague-Dawley rats (Aberdeen University colony) were used, which were 19 weeks old at the start of the study. Diabetes was induced by intraperitoneal streptozotocin injection at 40-45 mg kg^−1 freshly dissolved in sterile 0.9% saline solution. This was verified 24 hours later by estimating hyperglycaemia (blood glucose>19.9 mM) and glycosuria, and diabetic state was monitored weekly using test strips for blood (tail vein) and urine glucose levels. Body weight was also monitored daily to check against body weight gain (which would indicate partial recovery of beta cell function and exclude diabetic status).
(§3) After 6 weeks of untreated diabetes, four experimental groups (n=6 per group) were treated for a 2-week period, with a daily oral administration of 13-HODE at a range of dosages (13-Hydoxydienoic acid, Equateq, Isle of Lewis, UK), added to the food and dispersed in a sunflower oil vehicle. Experimental groups were treated with doses of a representative compound of the invention,13-HODE, ranging from 0.01 mg/kg/day to 100 mg/kg/day.
Rats were anaesthetized with thiobutabarbital sodium (50-100 mg kg^−1 i.p.). The trachea was cannulated for artificial respiration.
The sciatic nerve was exposed between the sciatic notch and knee, and Motor nerve conduction velocity (NCV) was measured using concentric bipolar electrodes, as described in Cameron N E, et al (1989) Q J Exp Physiol 74:917-926 and Cameron N E, et al (1991) Diabetes 40:532-539, in the nerve branch to tibialis anterior muscle, which is representative of the whole sciatic nerve in terms of susceptibility to diabetes and treatment effects. Evoked electromyographic (EMG) potentials from each stimulating site were averaged 8 times, and Motor NCV was calculated by dividing the distance between stimulating electrodes by the average latency difference between the onset of EMG potentials evoked from the 2 sites. Nerve temperatures were monitored by thermocouple probes, and maintained in the range 36-38° C. by radiant heat. Body temperature was also maintained around 37° C. using a heated blanket.
Experiments were carried out in similar fashions to Examples 1 and 2 except that 15-HETrE was used instead of 13-HODE.
An experiment was carried out in accordance with the method of Example 1 to determine the effect of GLA, 13-HODE and 15-HETrE on Motor NCV in diabetic rats.

The subject of assay [3] is diabetic rats. Kind of assay: Major pelvic ganglion blood flow by hydrogen clearance. The following applies: 1 mg/kg/day in food for 2 weeks.
The test system of assay [4] is diabetic rats. Nature of the assay: Sensory nerve conduction velocity (NCV) in saphenous nerve of streptozotocin-diabetic rats. The following applies: 2-week daily oral treatment after 6 weeks untreated diabetes, diabetic around 50 m/s, non-diabetic around 60 m/s. How it is done: as §2, §3
Rats were anaesthetized with thiobutabarbital sodium (50-100 mg kg^−1 i.p.). […]
An experiment was carried out in a similar fashion to Example 1 except that Sensory NCV was measured in the saphenous nerve between groin and mid calf. Direct nerve evoked potentials were recorded at the ankle using a unipolar platinum hook electrode. […]

The subject of assay [5] is diabetic rats. Nature of the assay: Corpus cavernosum pressure responses to cavernous nerve stimulation. The procedure: as §1
(§4) Experiments were designed with a reversal (intervention) paradigm: diabetic rats were untreated for 6 weeks to allow the development of neurovascular dysfunction. They were then treated over the next 2 weeks with a dose of 1 mg/kg/day of a representative compound of the invention, 13-HODE, given as a dietary supplement dispersed in the food with a sunflower oil vehicle (50 ml/2.5 kg food). Groups of nondiabetic control rats and diabetic rats treated with vehicle alone were also studied. […]
Non-diabetic control rats, diabetic rats treated with vehicle alone and diabetic rats treated with 13-HODE were anaesthetized with thiobutabarbital (50-100 mg kg^−1 i.p.). […] Cavernosal pressure responses were recorded in response to 60 s periods of suprathreshold (3-5 mA) nerve stimulation at frequencies in the range 1-32 Hz (stimulus duration 1.5-2 ms). […]

Assay [6] deals with diabetic rats. Nature of the assay: Sciatic nerve endoneurial blood flow by microelectrode polarography and hydrogen clearance. The following applies: 1 mg/kg/day in food for 2 weeks, flow halved in diabetic rats. How it is done:
Diabetes was induced in mature (19 week old) male Sprague-Dawley by streptozotocin injection (40-45 mg/kg i.p.). The diabetic state was monitored weekly using commercially available test strips for blood (tail vein) and urine glucose levels. Body weight would also be monitored daily. The criteria for the diabetic state are; blood glucose>19.9 mM, glycosuria, and no evidence of body weight gain (which would indicate partial recovery of beta cell function). At the end of the experiments, blood samples would be taken for the determination of plasma glucose. […]
Sciatic nerve endoneurial blood flows in non-diabetic control rats, diabetic rats treated with vehicle alone and diabetic rats treated with 13-HODE were estimated by microelectrode polarography and hydrogen clearance, using the methods described in Day T J, Lagerlund T D, Low P A (1989) Analysis of H2 clearance curves used to measure blood flow in rat sciatic nerve, J Physiol 414:35-54, and Cameron N E, Cotter M A, Low P A (1991) Nerve blood flow in early experimental diabetes in rats: relation to conduction deficits, Am J Physiol 261:E1-E8. […] The level of anaesthesia was monitored by observing any reaction of blood pressure to manipulation, and supplementary thiobutabarbital anaesthetic given as necessary. […]

Assay [7] deals with diabetic rats. Kind of assay: Tactile allodynia, electronic von Freys hair apparatus. The following applies: 1 mg/kg/day in food for 2 weeks. The procedure: as §1, §4
Tactile allodynia in non-diabetic control rats, diabetic rats treated with vehicle alone and diabetic rats treated with 13-HODE was monitored using an electronic von Freys hair apparatus. […] Allodynia was measured for each foot on one day.

Assay [8] concerns diabetic rats. Nature of the assay: Randall-Sellito test, mechanical pressure thresholds. The following applies: 1 mg/kg/day in food for 2 weeks. The procedure: as §1
Experiments were designed with a reversal (intervention) paradigm: diabetic rats were untreated for 6 weeks to allow the development of neurovascular dysfunction. They were then treated over the next 2 weeks with a dose of 1 mg/kg/day of a representative compound of the invention, 13-HODE, given as a dietary supplement dispersed in the food with a sunflower oil vehicle (50 ml/2.5 kg food). Groups of nondiabetic control rats and diabetic rats treated with vehicle alone were also studied.
Groups of non-diabetic control rats, diabetic rats treated with vehicle alone and diabetic rats treated with 13-HODE were obtained as in Example 4.
Before final experiments, nociceptive thresholds for mechanical stimulation were measured by the Randall-Sellito test . […]

As for `CCCCCC(O)/C=C/C=C\CCCCCCCC(=O)O` (stereo not shown) [13-HODE, 13-Hydroxyoctadeca-9Z,11E-dienoic acid], the “latency of response to thermal stimuli (increased sensitivity to noxious heat)” value in assay [1] was “completely corrected”. Besides, in assay [2], the “motor NCV” value was “around 60 m/s”, the ED50 was 0.057 mg/kg and the “times more potent than GLA in restoring motor nerve conduction velocity” value was “approximately 3000 times”. Besides, the “major pelvic ganglion blood flow” value in assay [3] is given as “restored to within the nondiabetic range”. In addition, the “sensory NCV” value in assay [4] is recorded as “around 60 m/s”. The “whole-frequency response curve versus nondiabetic controls” value in assay [5] (1 mg/kg/day for 2 weeks, 2-way ANOVA p<0.01) is given as “significantly greater pressure response”. In addition, the “cavernosal pressure responses to nerve stimulation: diabetic deficit” value in assay [5] (1 mg/kg/day in food for 2 weeks, stimulation 1-32 Hz) is reported as “completely corrected”. Also, the “sciatic nerve endoneurial blood flow” value in assay [6] was “completely restored”. Further, in assay [7], the “tactile allodynia (threshold for foot withdrawal to tactile stimulation)” value is on record as “almost completely reversed”. In assay [8], the “sensitivity to mechanical deep pressure (foot withdrawal)” value was “small but statistically significant improvement”.

Take `CCCCCC(O)/C=C/C=C\C/C=C\CCCCCCC(=O)O` (stereo not shown) [15-HETrE, 15-Hydroxy-eicosa-8Z,11Z,13E-trienoic acid]: in assay [2], the “motor NCV” value is listed as “around 60 m/s”, the ED50 is 0.252 mg/kg and the “times more potent than GLA in restoring motor nerve conduction velocity” value is “approximately 500 times”. The “sensory NCV” value in assay [4] is on record as “around 60 m/s”.

Regarding `CCCCC/C=C\C/C=C\C/C=C\CCCCC(=O)O` [GLA, gamma-linolenic acid, reference compound], the ED50 in assay [2] is 165 mg/kg.

The record behind these values is patent US20120122982A1, “USE OF PUFAS TO TREAT NERVE DAMAGE” (Equateq Limited, priority 2009, published 2012).
